From US6139538A, “Iontophoretic agent delivery to the female reproductive tract” (Iotek, Inc., priority 1997, dated 2000) come the findings set out here.

Where “and” joins values, the source holds several entries; their conditions need not be identical. Equal entries are not always repeated. Where two headings read alike, the source gives them in different places.

The conditions of the data set: 20 minutes.
Where [1] appears, read: Experiment #1, active (A1, A2, A3): 4% lidocaine solution, 1 mA.
The mark [2] stands for this setting: Experiment #1, passive (P1, P2, P3): 4% lidocaine solution, no current.
[3] abbreviates: Experiment #2, active (A1, A2, A3): 4% lidocaine solution, 1 mA.

Protocol: Two identical experiments compared iontophoretic delivery of an anesthetic into the uterine wall with passive delivery of the anesthetic into the uterine wall. Each experiment was conducted using segments of porcine uteri. In the first experiment, there were three trials of iontophoretic delivery using fresh segments of porcine uteri from the first pig and three trials of passive delivery using fresh segments of porcine uteri from the first pig. This procedure was repeated in the second experiment using segments of porcine uteri from the second pig. The weight of the pig for the first experiment was 110 lbs., and the weight of the pig for the second experiment was 120 lbs.
When running each trial for both the first and second experiments, the segment of porcine uterus was placed between two half diffusion cells, a donor cell and a receptor cell. […] The receptor cell was filled with isotonic saline. […] The tissue samples were analyzed using high pressure liquid chromatography (HPLC).
For the active delivery trials in each experiment, a donor or delivery electrode (anode) of Ag was placed in the donor cell and a receptor or return electrode (cathode) of AgCl was placed in the receptor cell. A 1 mA current was then conducted between the donor and receptor electrodes for 20 minutes. For the passive delivery trials in each experiment, the segments of porcine uteri were left in the diffusion cell opening between the donor solution and the receptor solution for 20 minutes.

With `CCN(CC)CC(=O)Nc1c(C)cccc1C` [lidocaine], under setting [1], the “Total μg in tissue” value is 604.6 µg and 600.2 µg and 494.6 µg; the μg/mL of lidocaine is 120.9 µg/mL and 120.0 µg/mL and 98.9 µg/mL. Besides, under setting [2], the “Total μg in tissue” value is 131.8 µg and 95.5 µg and 172.1 µg; the μg/mL of lidocaine is 26.4 µg/mL and 19.1 µg/mL and 34.4 µg/mL. Under setting [3], the “Total μg/g in tissue” value is 702.3 µg/g and 808.2 µg/g and 781.1 µg/g; the μg/mL of lidocaine was 140.5 µg/mL and 161.6 µg/mL and 156.2 µg/mL.
